Data: patent CN1063108A, “三氟甲基酮衍生物及其制备方法和用途” (Fujisawa Pharmaceutical Co Ltd, priority 1990, dated 1992)
Numbered stars: 1 amine (or outer) side, 2 acyl side, 3 side chain; on linkers, the order of the positions; unused ones are H or OH. Square brackets hold non-standard residues; d marks the D form. Peptide text beside a SMILES is read from it. * marks the point of attachment. ξ: configuration not given here. 4Abz = Nc1ccc(C(=O)O)cc1; CO = O=C([*:1])[*:2]; ξV = CC(C)C(N)C(=O)O; CF3 = FC(F)(F)*

Experiments:
[1] = system: human sputum elastase-induced lung hemorrhage in hamsters; experiment: Elastase-induced lung hemorrhage (hemoglobin in BAL cells, OD 541 nm); format: in vivo, hamster; conditions: for Hemorrhage (OD541nm) / % inhibition of lung hemorrhage: 5 min before elastase; for Hemorrhage (OD541nm): BAL 3 h later; for ED50, inhibition of lung hemorrhage: intratracheal, 5 min pre-dose
[2] = system: HSE-induced paw edema in C57BL mice; experiment: Human sputum elastase-induced mouse paw edema; format: in vivo; conditions: for Footpad thickness (difference right-left hind paw): 15 min before HSE 20 μg/site, measured 2 h after HSE
[3] = system: PPE-induced emphysema in Golden Syrian hamsters; experiment: Experimentally induced (porcine pancreatic elastase) emphysema in hamsters, lung mechanics; format: in vivo, hamster; conditions: for Cst (quasi-static lung compliance) / VC (vital capacity): 5 min before PPE 100 μg/site, 3 weeks later
[4] = 1 μg/site intratracheal, listed as 13
[5] = 10 μg/site intratracheal, listed as 13
[6] = 100 μg/site intratracheal, listed as 13
[7] = 1 μg/site intratracheal, listed as 19
[8] = 10 μg/site intratracheal, listed as 19
[9] = 100 μg/site intratracheal, listed as 19

For `CC(C)C(NC(=O)[C@@H]1CCCN1C(=O)[C@@H](NC(=O)c1ccc(C(=O)NCC(=O)O)cc1)C(C)C)C(=O)C(F)(F)F` (stereo partly drawn) [实施例13, 3(RS)-[[4-(羧基甲基氨基羰基)苯基羰基]-L-缬氨酰基-L-脯氨酰基]氨基-1，1，1-三氟-4-甲基-2-氧代戊烷], the “Hemorrhage (OD541nm)” value [1, 4] was 11.63±1.99 OD541nm, the “% inhibition of lung hemorrhage” value [1, 4] was 21.6% and the “Hemorrhage (OD541nm)” value [1, 5] was 4.217±1.02 OD541nm. For the same compound, the “% inhibition of lung hemorrhage” value [1, 5] was 74.5%, the “Hemorrhage (OD541nm)” value [1, 6] was 0.6384±0.222 OD541nm and the “% inhibition of lung hemorrhage” value [1, 6] was 100.0%. For the same compound, the “ED50, inhibition of lung hemorrhage” value ([1]; listed as 13) was 3.0 μg/位点.
`CC(C)C(NC(=O)[C@@H]1CCCN1C(=O)[C@@H](NC(=O)c1ccc(C(=O)NCC(=O)O)cc1)C(C)C)C(=O)C(F)(F)F` (stereo partly drawn) [实施例19, 3(RS)-[[4-(羧甲基氨基羰基)苯基羰基]-L-缬氨酰基-L-脯氨酰基]氨基-1，1，1-三氟-4-甲基-2-氧代戊烷] was tested, and the “% inhibition of paw edema” value ([2]; 1 mg/Kg s.c.) was 6.4%, the “Footpad thickness (difference right-left hind paw)” value ([2]; 1 mg/Kg s.c.) was 43.8±5.67 ×10-2mm and the “% inhibition of paw edema” value ([2]; 10 mg/Kg s.c.) was 20.9%. For the same compound, the “Footpad thickness (difference right-left hind paw)” value ([2]; 10 mg/Kg s.c.) was 37.0±13.41 ×10-2mm, the “% inhibition of paw edema” value ([2]; 100 mg/Kg s.c.) was 42.3% and the “Footpad thickness (difference right-left hind paw)” value ([2]; 100 mg/Kg s.c.) was 27.0±4.66 ×10-2mm. For the same compound, the “Cst, % inhibition” value ([3]; 1 μg/site intratracheal) was 15%, the “VC, % inhibition” value ([3]; 1 μg/site intratracheal) was 12% and the “Cst (quasi-static lung compliance)” value ([3]; 1 μg/site intratracheal) was 1.39±0.05 ml/cm H2O. For the same compound, the “VC (vital capacity)” value ([3]; 1 μg/site intratracheal) was 7.0 ± 0.1 mL, the “Cst, % inhibition” value ([3]; 10 μg/site intratracheal) was 84% and the “VC, % inhibition” value ([3]; 10 μg/site intratracheal) was 65%. For the same compound, the “Cst (quasi-static lung compliance)” value ([3]; 10 μg/site intratracheal) was 0.70±0.04 ml/cm H2O, the “VC (vital capacity)” value ([3]; 10 μg/site intratracheal) was 5.8 ± 0.1 mL and the “Cst, % inhibition” value ([3]; 100 μg/site intratracheal) was 100%. For the same compound, the “VC, % inhibition” value ([3]; 100 μg/site intratracheal) was 97%, the “Cst (quasi-static lung compliance)” value ([3]; 100 μg/site intratracheal) was 0.53±0.02 ml/cm H2O and the “VC (vital capacity)” value ([3]; 100 μg/site intratracheal) was 5.0 ± 0.1 mL. For the same compound, the “Potency compared with prior-art compounds by Cst and VC (in words)” value ([3]; based on Cst and VC values) was “效力优于先有技术化合物A和B”, the “Effect of pretreatment on PPE-induced increase in lung mechanics (in words)” value ([3]; dose-related, intratracheal pretreatment) was “防止了PPE诱发的肺力学增加” and the “Hemorrhage (OD541nm)” value [1, 7] was 11.59±1.40 OD541nm. The “% inhibition of lung hemorrhage” value [1, 7] was 10.8%, the “Hemorrhage (OD541nm)” value [1, 8] was 1.663±0.690 OD541nm and the “% inhibition of lung hemorrhage” value [1, 8] was 93.1%. The “Hemorrhage (OD541nm)” value [1, 9] was 0.2141±0.020 OD541nm, the “% inhibition of lung hemorrhage” value [1, 9] was 105.2% and the “ED50, inhibition of lung hemorrhage” value ([1]; listed as 19) was 2.4 μg/位点.
In the case of `CC(C)C(NC(=O)[C@@H]1CCCN1C(=O)[C@@H](NC(=O)c1ccc(C(=O)NCCN2CCOCC2)cc1)C(C)C)C(=O)C(F)(F)F.Cl` (stereo partly drawn) [实施例21, 3(RS)-[[4-[[2-(4-吗啉代)乙基]氨基羰基]苯基羰基]-L-缬氨酰基-L-脯氨酰基]氨基-1，1，1-三氟-4-甲基-2-氧代戊烷盐酸盐], the “% inhibition of lung hemorrhage” value ([1]; 1 μg/site intratracheal) is reported as 13.6%, the “Hemorrhage (OD541nm)” value ([1]; 1 μg/site intratracheal) is reported as 12.76±1.11 OD541nm and the “% inhibition of lung hemorrhage” value ([1]; 10 μg/site intratracheal) is reported as 66.3%. For the same compound, the “Hemorrhage (OD541nm)” value ([1]; 10 μg/site intratracheal) was 5.372±2.06 OD541nm, the “% inhibition of lung hemorrhage” value ([1]; 100 μg/site intratracheal) was 100.0% and the “Hemorrhage (OD541nm)” value ([1]; 100 μg/site intratracheal) was 0.6476±0.129 OD541nm. For the same compound, the “ED50, inhibition of lung hemorrhage” value [1] was 4.5 μg/位点.
In the case of `CC(C)C(NC(=O)[C@@H]1CCCN1C(=O)[C@@H](NC(=O)Nc1ccc(C(=O)NCC(=O)O)cc1)C(C)C)C(=O)C(F)(F)F` (stereo partly drawn) [实施例23, 3(RS)-[[4-(羧甲基氨基羰基)苯基氨基羰基]-L-缬氨酰基-L-脯氨酰基]氨基-1，1，1-三氟-2-氧代-4-甲基戊烷] ({Gly-4Abz-CO}-Val-Pro-[ξV]-CF3), the “% inhibition of lung hemorrhage” value ([1]; 1 μg/site intratracheal) is reported as 16.0%, the “Hemorrhage (OD541nm)” value ([1]; 1 μg/site intratracheal) is reported as 9.435±0.941 OD541nm and the “% inhibition of lung hemorrhage” value ([1]; 10 μg/site intratracheal) is reported as 75.6%. The “Hemorrhage (OD541nm)” value ([1]; 10 μg/site intratracheal) was 3.412±1.31 OD541nm, the “% inhibition of lung hemorrhage” value ([1]; 100 μg/site intratracheal) was 102.1% and the “Hemorrhage (OD541nm)” value ([1]; 100 μg/site intratracheal) was 0.7258±0.303 OD541nm. The “ED50, inhibition of lung hemorrhage” value [1] was 3.2 μg/位点.
For `CC(C)C(NC(=O)CN(C(=O)[C@@H](NC(=O)c1ccc(C(=O)NCC(=O)[O-])cc1)C(C)C)C1Cc2ccccc2C1)C(=O)C(F)(F)F.[Na+]` (stereo partly drawn) [实施例27, 3(RS)-[[4-(羧甲基氨基羰基)苯基羰基]-L-缬氨酰基-N-(2-二氢化茚基)甘氨酰基]氨基-1，1，1-三氟-4-甲基-2-氧代戊烷钠盐], the “% inhibition of lung hemorrhage” value ([1]; 1 μg/site intratracheal) was 24.8%, the “Hemorrhage (OD541nm)” value ([1]; 1 μg/site intratracheal) was 10.68±1.25 OD541nm and the “% inhibition of lung hemorrhage” value ([1]; 10 μg/site intratracheal) was 66.9%. The “Hemorrhage (OD541nm)” value ([1]; 10 μg/site intratracheal) was 4.878±0.917 OD541nm, the “% inhibition of lung hemorrhage” value ([1]; 100 μg/site intratracheal) was 99.8% and the “Hemorrhage (OD541nm)” value ([1]; 100 μg/site intratracheal) was 0.3451±0.084 OD541nm. The “ED50, inhibition of lung hemorrhage” value [1] was 3.7 μg/位点.
With `CC(C)C(NC(=O)CN(C(=O)[C@@H](NC(=O)c1ccc(C(=O)NCCN2CCOCC2)cc1)C(C)C)C1Cc2ccccc2C1)C(=O)C(F)(F)F.Cl` (stereo partly drawn) [实施例29, 3(RS)-[[4-[[2-(4-吗啉代)乙基]氨基羰基]苯基羰基]-L-缬氨酰基-N-(2-二氢化茚基)甘氨酰基]氨基-1，1，1-三氟-4-甲基-2-氧代戊烷的盐酸盐] the “% inhibition of lung hemorrhage” value ([1]; 1 μg/site intratracheal) was 14.9%, the “Hemorrhage (OD541nm)” value ([1]; 1 μg/site intratracheal) was 12.05±1.95 OD541nm and the “% inhibition of lung hemorrhage” value ([1]; 10 μg/site intratracheal) was 43.2%. For the same compound, the “Hemorrhage (OD541nm)” value ([1]; 10 μg/site intratracheal) was 8.155±1.76 OD541nm, the “% inhibition of lung hemorrhage” value ([1]; 100 μg/site intratracheal) was 69.4% and the “Hemorrhage (OD541nm)” value ([1]; 100 μg/site intratracheal) was 4.545±1.49 OD541nm. The “ED50, inhibition of lung hemorrhage” value [1] was 17.9 μg/位点.
